How the values were obtained:
[1] = test system: ECHCG; test: Pre-emergence action against ECHCG; assay type: in vivo, Echinochloa crus-galli; details: pre-emergence, dosage 320 g/ha, scored visually after 3 weeks vs untreated controls
How it was run: (§1)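 Seeds sown in sandy loam in wood-fiber pots and covered with soil. Greenhouse growth; visual damage scored after 3 weeks versus untreated controls (100% = dead, 0% = like control).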

[2] = test system: PHBPU; test: Post-emergence action against PHBPU; assay type: in vivo, Pharbitis purpurea; details: post-emergence, dosage 80 g/ha
How it was run: (§2)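 Weeds grown in sandy loam in greenhouse, treated at one-leaf stage (2–3 weeks after sowing) with WP or EC formulations sprayed as aqueous suspension/emulsion at 600 to […] water with 0.2% wetting agent. Visual rating after about 3 weeks versus untreated controls, as % herbicidal action (100% = plants dead, 0% = like control).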

[3] = test system: VIOTR; test: Post-emergence action against VIOTR; assay type: in vivo, Viola tricolor; details: post-emergence, dosage 80 g/ha
How it was run: as §2

[4] = test system: AMARE; test: Pre-emergence action against AMARE; assay type: in vivo, Amaranthus retroflexus; details: pre-emergence, dosage 320 g/ha, scored visually after 3 weeks vs untreated controls
How it was run: as §1

[5] = test system: ABUTH; test: Post-emergence action against ABUTH; assay type: in vivo, Abutilon theophrasti; details: post-emergence, dosage 80 g/ha, visual assessment about 3 weeks after treatment vs untreated controls
How it was run: as §2

[6] = test system: LOLMU; test: Post-emergence action against LOLMU; assay type: in vivo, Lolium multiflorum; details: dosage 80 g/ha, visual assessment about 3 weeks after treatment vs untreated controls
Description: Seeds of monocotyledonous and dicotyledonous weed and crop plants are laid out in sandy loam soil in wood-fiber pots, covered with soil and cultivated in a greenhouse under good growth conditions. 2 to 3 weeks after sowing, the test plants are treated at the one-leaf stage. The compounds of the invention, formulated in the form of wettable powders (WP) or as emulsion concentrates (EC), are then sprayed onto the green parts of the plants in the form of an aqueous suspension or emulsion at a water application rate equating to […], with addition of 0.2% wetting agent. After the test plants have been left to stand in the greenhouse under optimal growth conditions for about 3 weeks, the action of the preparations is assessed visually in comparison to untreated controls (herbicidal action in percent (%): 100% activity=the plants have died, 0% activity=like control plants). […] At the same time, inventive compounds leave Gramineae crops such as barley, wheat, rye, millet/Sorghum, corn or rice virtually undamaged when applied post-emergence, even at high active ingredient dosages. In addition, some substances are also harmless to dicotyledonous crops such as soya, cotton, oilseed rape, sugar beet or potatoes. Some of the compounds according to the invention have high selectivity and are therefore suitable for controlling unwanted vegetation in agricultural crops by the post-emergence method. The data of Tables B18 to B34 below illustrate, in an exemplary manner, the […] herbicidal action of the compounds according to the invention, the herbicidal activity being stated in percent.

[7] = test system: ALOMY; test: Pre-emergence action against ALOMY; assay type: in vivo, Alopecurus myosuroides; details: dosage 320 g/ha, pre-emergence, scored visually after 3 weeks vs untreated controls, 100% = plants have died, 0% = like control plants
How it was run: as §1

[8] = test system: VERPE; test: Pre-emergence action against VERPE; assay type: in vivo, Veronica persica; details: Dosage 320 g/ha, pre-emergence
How it was run: as §1

[9] = test system: SETVI; test: Pre-emergence action against SETVI; assay type: in vivo, Setaria viridis; details: pre-emergence, dosage 320 g/ha, scored visually after 3 weeks vs untreated controls
How it was run: as §1

[10] = test system: ECHCG; test: Post-emergence action against ECHCG; assay type: in vivo, Echinochloa crus-galli; details: post-emergence, dosage 80 g/ha, visual assessment about 3 weeks after treatment vs untreated controls
How it was run: as §2

[11] = test system: LOLMU; test: Pre-emergence action against LOLMU; assay type: in vivo, Lolium multiflorum; details: dosage 320 g/ha, scored visually after 3 weeks vs untreated controls
How it was run: as §1

[12] = test system: STEME; test: Post-emergence action against STEME; assay type: in vivo, Stellaria media; details: post-emergence, dosage 80 g/ha
How it was run: as §2

[13] = test system: MATIN; test: Pre-emergence action against MATIN; assay type: in vivo, Matricaria inodora; details: Dosage 320 g/ha, pre-emergence
How it was run: as §1

[14] = test system: SETVI; test: Post-emergence action against SETVI; assay type: in vivo, Setaria viridis; details: post-emergence, dosage 80 g/ha, visual assessment about 3 weeks after treatment vs untreated controls
How it was run: as §2

[15] = test system: AVEFA; test: Post-emergence action against AVEFA; assay type: in vivo, Avena fatua; details: post-emergence, dosage 80 g/ha, visual assessment about 3 weeks after treatment vs untreated controls
How it was run: as §2

[16] = test system: MATIN; test: Post-emergence action against MATIN; assay type: in vivo, Matricaria inodora; details: post-emergence, dosage 80 g/ha, visual assessment about 3 weeks after treatment vs untreated controls
How it was run: as §2

[17] = test system: AVEFA; test: Pre-emergence action against AVEFA; assay type: in vivo, Avena fatua; details: dosage 320 g/ha, scored visually after 3 weeks vs untreated controls
How it was run: as §1

[18] = test system: ABUTH; test: Pre-emergence action against ABUTH; assay type: in vivo, Abutilon theophrasti; details: pre-emergence, dosage 320 g/ha, scored visually after 3 weeks vs untreated controls
How it was run: as §1

[19] = test system: CYPES; test: Post-emergence action against CYPES; assay type: in vivo, Cyperus esculentus; details: post-emergence, dosage 80 g/ha, visual assessment about 3 weeks after treatment vs untreated controls
How it was run: as §2

[20] = test system: CYPES; test: Pre-emergence action against CYPES; assay type: in vivo, Cyperus esculentus; details: pre-emergence, dosage 320 g/ha, scored visually after 3 weeks vs untreated controls
How it was run: as §1

[21] = test system: POLCO; test: Post-emergence action against POLCO; assay type: in vivo, Polygonum convolvulus; details: post-emergence, dosage 80 g/ha
How it was run: as §2

[22] = test system: ALOMY; test: Post-emergence action against ALOMY; assay type: in vivo, Alopecurus myosuroides; details: Dosage 80 g/ha, post-emergence
How it was run: as §2

[23] = test system: STEME; test: Pre-emergence action against STEME; assay type: in vivo, Stellaria media; details: Dosage 320 g/ha, pre-emergence
How it was run: as §1

[24] = test system: VERPE; test: Post-emergence action against VERPE; assay type: in vivo, Veronica persica; details: dosage 80 g/ha
How it was run: as §2

[25] = test system: POLCO; test: Pre-emergence action against POLCO; assay type: in vivo, Polygonum convolvulus; details: Fallopia convolvulus, 504 h; Dosage 320 g/ha, pre-emergence
How it was run: as §1

[26] = test system: VIOTR; test: Pre-emergence action against VIOTR; assay type: in vivo, Viola tricolor; details: Dosage 320 g/ha, pre-emergence
How it was run: as §1

[27] = test system: AMARE; test: Post-emergence action against AMARE; assay type: in vivo, Amaranthus retroflexus; details: post-emergence, dosage 80 g/ha, visual assessment about 3 weeks after treatment vs untreated controls
How it was run: as §2

[28] = test system: PHBPU; test: Pre-emergence action against PHBPU; assay type: in vivo, Pharbitis purpurea; details: Dosage 320 g/ha, pre-emergence
How it was run: as §1

CC(=O)c1c(Cl)ccc(C(=O)Nc2nnnn2C)c1Cl [1-114]
pest or weed control at 320 g/ha ([1]; Echinochloa crus-galli, 504 h, read-out: Pre-emergence action against ECHCG (herbicidal activity)): 100%
pest or weed control at 80 g/ha ([2]; Ipomoea purpurea, 504 h): 90%
pest or weed control at 80 g/ha ([3]; Viola tricolor, 504 h): 90%
pest or weed control at 320 g/ha ([4]; Amaranthus retroflexus, 504 h, read-out: Pre-emergence action against AMARE (herbicidal activity)): 100%
pest or weed control at 80 g/ha ([5]; Abutilon theophrasti, 504 h, read-out: Post-emergence action against ABUTH (herbicidal action in percent)): 80%
pest or weed control at 80 g/ha ([6]; Lolium multiflorum, 504 h, read-out: Post-emergence action against LOLMU (herbicidal action in percent)): 100%
pest or weed control at 320 g/ha ([7]; Alopecurus myosuroides, 504 h, read-out: Pre-emergence action against ALOMY (herbicidal activity in percent)): 90%
pest or weed control at 320 g/ha ([8]; Veronica persica, 504 h): 100%
pest or weed control at 320 g/ha ([9]; Setaria viridis, 504 h, read-out: SETVI (Table B8, pre-emergence herbicidal activity)): 100%
pest or weed control at 80 g/ha ([10]; Echinochloa crus-galli, 504 h, read-out: Post-emergence action against ECHCG (herbicidal action in percent)): 90%
pest or weed control at 320 g/ha ([11]; Lolium multiflorum, 504 h, read-out: Pre-emergence action against LOLMU (herbicidal activity)): 100%
pest or weed control at 80 g/ha ([12]; Stellaria media, 504 h): 100%
pest or weed control at 320 g/ha ([13]; Tripleurospermum inodorum, 504 h): 100%
pest or weed control at 80 g/ha ([14]; Setaria viridis, 504 h, read-out: Post-emergence action against SETVI (herbicidal action in percent)): 80%
pest or weed control at 80 g/ha ([15]; Avena fatua, 504 h, read-out: Post-emergence action against AVEFA (herbicidal action in percent)): 90%
pest or weed control at 80 g/ha ([16]; Tripleurospermum inodorum, 504 h, read-out: Post-emergence action against MATIN (herbicidal action in percent)): 80%
pest or weed control at 320 g/ha ([17]; Avena fatua, 504 h, read-out: Pre-emergence action against AVEFA (herbicidal activity)): 100%
pest or weed control at 320 g/ha ([18]; Abutilon theophrasti, 504 h, read-out: Pre-emergence action against ABUTH (herbicidal activity)): 100%
pest or weed control at 80 g/ha ([19]; Cyperus esculentus, 504 h, read-out: Post-emergence action against CYPES (herbicidal action in percent)): 80%
pest or weed control at 320 g/ha ([20]; Cyperus esculentus, 504 h, read-out: Pre-emergence action against CYPES (herbicidal activity)): 100%
pest or weed control at 80 g/ha ([21]; Fallopia convolvulus, 504 h): 90%
pest or weed control at 80 g/ha ([22]; Alopecurus myosuroides, 504 h): 80%
pest or weed control at 320 g/ha ([23]; Stellaria media, 504 h): 90%
pest or weed control at 80 g/ha ([24]; Veronica persica, 504 h): 100%
pest or weed control at 320 g/ha [25]: 90%
pest or weed control at 320 g/ha ([26]; Viola tricolor, 504 h): 100%

CCC(=O)c1c(C(F)(F)F)ccc(C(=O)Nc2nnnn2CC)c1C [2-15]
Post-emergence action against AMARE (herbicidal action in percent) [27]: 90%
Pre-emergence action against ECHCG (herbicidal activity) [1]: 100%
Post-emergence action against PHBPU [2]: 80
Post-emergence action against VIOTR [3]: 100
Pre-emergence action against AMARE (herbicidal activity) [4]: 100%
Pre-emergence action against PHBPU [28]: 80%
Post-emergence action against ABUTH (herbicidal action in percent) [5]: 100%
Post-emergence action against LOLMU (herbicidal action in percent) [6]: 90%
Pre-emergence action against ALOMY (herbicidal activity in percent) [7]: 100%
Pre-emergence action against VERPE [8]: 100%
SETVI (Table B8, pre-emergence herbicidal activity) [9]: 100%
Post-emergence action against ECHCG (herbicidal action in percent) [10]: 90%
Pre-emergence action against LOLMU (herbicidal activity) [11]: 100%
Post-emergence action against STEME [12]: 100
Pre-emergence action against MATIN [13]: 100%
Post-emergence action against SETVI (herbicidal action in percent) [14]: 100%
Post-emergence action against AVEFA (herbicidal action in percent) [15]: 80%
Post-emergence action against MATIN (herbicidal action in percent) [16]: 90%
Pre-emergence action against AVEFA (herbicidal activity) [17]: 100%
Pre-emergence action against ABUTH (herbicidal activity) [18]: 100%
Post-emergence action against CYPES (herbicidal action in percent) [19]: 90%
Pre-emergence action against CYPES (herbicidal activity) [20]: 90%
Post-emergence action against POLCO [21]: 100
Post-emergence action against ALOMY [22]: 100%
Pre-emergence action against STEME [23]: 100%
Post-emergence action against VERPE [24]: 90
Pre-emergence action against VIOTR [26]: 100%

CCn1nnnc1NC(=O)c1ccc(S(C)(=O)=O)c(C(=O)C2CC2)c1Cl [2-129]
Post-emergence action against AMARE (herbicidal action in percent) [27]: 100%
Pre-emergence action against ECHCG (herbicidal activity) [1]: 100%
Post-emergence action against PHBPU [2]: 100
Post-emergence action against VIOTR [3]: 100
Pre-emergence action against AMARE (herbicidal activity) [4]: 100%
Post-emergence action against ABUTH (herbicidal action in percent) [5]: 80%
Post-emergence action against LOLMU (herbicidal action in percent) [6]: 90%
Pre-emergence action against ALOMY (herbicidal activity in percent) [7]: 90%
Pre-emergence action against VERPE [8]: 100%
SETVI (Table B8, pre-emergence herbicidal activity) [9]: 100%
Post-emergence action against ECHCG (herbicidal action in percent) [10]: 90%
Pre-emergence action against LOLMU (herbicidal activity) [11]: 90%
Post-emergence action against STEME [12]: 100
Pre-emergence action against MATIN [13]: 100%
Post-emergence action against SETVI (herbicidal action in percent) [14]: 100%
Post-emergence action against AVEFA (herbicidal action in percent) [15]: 100%
Post-emergence action against MATIN (herbicidal action in percent) [16]: 100%
Pre-emergence action against AVEFA (herbicidal activity) [17]: 100%
Pre-emergence action against ABUTH (herbicidal activity) [18]: 100%
Post-emergence action against CYPES (herbicidal action in percent) [19]: 80%
Pre-emergence action against CYPES (herbicidal activity) [20]: 100%
Post-emergence action against POLCO [21]: 100
Post-emergence action against ALOMY [22]: 100%
Pre-emergence action against STEME [23]: 100%
Post-emergence action against VERPE [24]: 100
Pre-emergence action against VIOTR [26]: 100%
